Experimental data from patent US6984634B2, “Bile-acid conjugates for providing sustained systemic concentrations of drugs” (XenoPort, Inc., priority 2000, dated 2006).
Read-outs that look alike come from different tables or passages of the source.

How the values were obtained:
IBAT transporter [1] = molecular target: T1, IBAT transporter (Homo sapiens, UniProt Q12908); assay: Inhibition of radiolabeled taurocholate uptake in IBAT-expressing CHO cells; assay type: cell-based; conditions: radiolabeled competition assay in IBAT-expressing CHO cells, taurocholate 5 μM
T1 sequence (Q12908 1-348): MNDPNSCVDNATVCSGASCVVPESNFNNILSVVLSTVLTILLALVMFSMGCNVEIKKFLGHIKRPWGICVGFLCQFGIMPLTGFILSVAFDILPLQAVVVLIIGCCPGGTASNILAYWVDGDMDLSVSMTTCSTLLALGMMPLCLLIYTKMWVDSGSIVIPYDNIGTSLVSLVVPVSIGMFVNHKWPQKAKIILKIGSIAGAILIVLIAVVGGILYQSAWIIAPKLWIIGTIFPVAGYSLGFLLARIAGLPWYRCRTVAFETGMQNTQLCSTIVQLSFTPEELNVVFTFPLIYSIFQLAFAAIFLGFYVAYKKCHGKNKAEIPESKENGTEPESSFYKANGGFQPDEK
Experimental: (§1) (a) Inhibition of Radiolabeled Taurocholate Uptake
(§2) CHO cells transfected with the IBAT or LBAT transporter were seeded into 96-well microtiter plates at 100,000 cells/well in 100 μL DMEM containing 10% serum, glutamine and Penstrep. After overnight incubation the media was removed and test compound (25 μL) added at 2× the final desired concentration. Tritiated taurocholate (50,000 CPM/well) was diluted with cold substrate to a final concentration of 5 μM and 25 μL/well of this mixture was added to the plate. After incubating for 1 h at room temperature the solution was removed and the plate washed 4× with PBS at 4° C. 200 μL/well of scintillant is added and the plate then read in a Wallac microbeta counter. The inhibition data is processed by standard methods to calculate an inhibition constant K1 for the test compound.

IBAT transporter [2] = molecular target: T1, IBAT transporter; assay: Electrogenic transport in Xenopus oocytes expressing IBAT; assay type: cell-based; conditions: for % Max. (GDC): relative to glycodeoxycholate
Source text: (b) Analysis of Electrogenic Transport in Xenopus Oocytes
RNA preparation: Human IBAT Transporter cDNAs were subcloned into a modified pGEM plasmid that contains 5′ and 3′ untranslated sequences from the Xenopus β-actin gene. These sequences increase RNA stability and protein expression. Plasmid cDNA was linearized and used as template for in vitro transcription (Epicentre Technologies transcription kit, 4:1 methylated:non-methylated GTP).
Xenopus oocyte isolation. Xenopus laevis frogs were anesthetized by immersion in Tricaine ([…] in deionized water) for 15 min. Oocytes were removed and digested in frog ringer solution (90 mM NaCl, 2 mM KCl, 1 mM MgCl2, 10 mM NaHEPES, pH 7.45, no CaCl2) with 1 mg/mL collagenase (Worthington Type 3) for 80-100 min with shaking. The oocytes were washed 6 times, and the buffer changed to frog ringer solution containing CaCl2 (1.8 mM). Remaining follicle cells were removed if necessary. Cells were incubated at 16° C., and each oocyte injected with […] RNA in […] solution.
Electrophysiology measurements. Transport currents were measured 2-14 days after injection, using a standard two-electrode electrophysiology set-up (Geneclamp 500 amplifier, Digidata 1320/PCLAMP software and ADInstruments hardware and software were used for signal acquisition). Electrodes ([…]) were microfabricated using a Sutter Instrument puller and filled with 3M KCl. The bath was directly grounded (transporter currents were less than 0.3 μA). Bath flow was controlled by an automated perfusion system (ALA Scientific Instruments, solenoid valves).
For transporter pharmacology, oocytes were clamped at −60 to −90 mV, and continuous current measurements acquired using PowerLab Software and an ADInstruments digitizer. Current signals were lowpass filtered at 20 Hz and acquired at 4-8 Hz. All bath and drug-containing solutions were frog ringers solution containing CaCl2. Drugs were applied for 10-30 seconds until the induced current reached a new steady-state level, followed by a control solution until baseline currents returned to levels that preceded drug application. The difference current (baseline subtracted from peak current during drug application) reflected the net movement of charge resulting from electrogenic transport and was directly proportional to tranport rate. Recordings were made from a single oocyte for up to 60 min, enabling 30-40 separate compounds to be tested per oocyte. […] To compare results between oocytes expressing different levels of transport activity, a saturating concentration of glycodeoxycholate (300 μM) was used as a common reference to normalize results from test compounds. Using this normalization procedure Vmax (i.e. maximal induced current) for different compounds tested on different oocytes could be compared.

LBAT transporter = molecular target: T2, LBAT transporter (Homo sapiens, UniProt Q14973); assay: Inhibition of radiolabeled taurocholate uptake in LBAT-expressing CHO cells; assay type: cell-based; conditions: radiolabeled competition assay in LBAT-expressing CHO cells, taurocholate 5 μM
T2 sequence (Q14973 1-349): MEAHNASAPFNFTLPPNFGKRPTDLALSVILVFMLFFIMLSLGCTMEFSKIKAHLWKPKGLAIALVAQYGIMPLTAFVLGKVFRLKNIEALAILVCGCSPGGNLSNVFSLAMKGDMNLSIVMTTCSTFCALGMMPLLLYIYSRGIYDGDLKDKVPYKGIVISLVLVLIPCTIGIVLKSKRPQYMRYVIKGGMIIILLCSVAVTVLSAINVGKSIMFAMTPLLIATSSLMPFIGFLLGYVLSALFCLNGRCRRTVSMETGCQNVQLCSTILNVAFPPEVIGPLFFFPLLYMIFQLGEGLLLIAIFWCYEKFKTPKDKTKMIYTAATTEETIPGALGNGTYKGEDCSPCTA
Experimental: as §1, §2

[3] = Pharmacokinetics in rats, Gabapentin in plasma after oral administration; conditions: male, Sprague-Dawley, rat, 25 mg/kg
Experimental: The pharmacokinetics of the prodrug Cholyl-Phe-Gabapentin (9g) were examined in rats. Three groups of four male Sprague-Dawley rats (approx 200 g) with jugular cannulae each received one of the following treatments: A) a single bolus intravenous injection of Gabapentin (25 mg/kg, as a solution in water); B) a single oral dose of Gabapentin (25 mg/kg, as a solution in water) administered by oral gavage; C) a single oral dose of (9g) (103.5 mg/kg, as a solution in water) administered by oral gavage. Animals were fasted overnight prior to dosing and until 4 hours post-dosing. Serial blood samples were obtained over 24 hours following dosing and blood was processed for plasma by centrifugation. Plasma samples were stored at −80° C. until analyzed.
Concentrations of (9g) or (2) in plasma samples were determined by LC/MS/MS as described above. Plasma (50 μL) was precipitated by addition of […] of methanol and supernatent was injected directly onto the LC/MS/MS system.

rPEPT1 [4] = molecular target: T3, rPEPT1 (Rattus norvegicus, UniProt P51574); assay: Inhibition of radiolabeled Gly-Sar uptake in rPEPT1-expressing CHO cells; assay type: cell-based
T3 construct: expressed in transfected cells; host or cells: CHO cells
T3 sequence (P51574 1-710): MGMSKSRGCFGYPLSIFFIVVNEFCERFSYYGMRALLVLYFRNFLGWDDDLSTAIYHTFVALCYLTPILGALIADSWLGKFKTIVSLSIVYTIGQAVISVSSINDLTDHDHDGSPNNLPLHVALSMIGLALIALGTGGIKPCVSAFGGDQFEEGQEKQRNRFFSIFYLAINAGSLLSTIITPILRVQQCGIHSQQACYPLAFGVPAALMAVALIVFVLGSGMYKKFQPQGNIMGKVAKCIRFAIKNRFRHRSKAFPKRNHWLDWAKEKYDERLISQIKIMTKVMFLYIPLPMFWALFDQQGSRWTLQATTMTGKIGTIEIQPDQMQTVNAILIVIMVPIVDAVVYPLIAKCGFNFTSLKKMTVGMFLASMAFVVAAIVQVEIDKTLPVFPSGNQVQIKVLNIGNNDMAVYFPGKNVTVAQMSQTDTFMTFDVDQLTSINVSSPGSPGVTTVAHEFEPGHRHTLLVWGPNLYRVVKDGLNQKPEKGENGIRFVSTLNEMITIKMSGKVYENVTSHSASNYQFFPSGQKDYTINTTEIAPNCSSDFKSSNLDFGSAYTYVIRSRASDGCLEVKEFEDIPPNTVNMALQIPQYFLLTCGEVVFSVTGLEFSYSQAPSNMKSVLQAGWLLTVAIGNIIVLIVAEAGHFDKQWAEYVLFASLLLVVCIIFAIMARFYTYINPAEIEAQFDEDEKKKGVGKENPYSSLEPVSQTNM
Experimental: (§3) Rat and human PEPT1 and PEPT2 expressing CHO cell lines were prepared as described in PCT Application WO01/20331. Gabapentin-containing dipeptides were evaluated for interaction with the peptide transporters using a radiolabeled substrate uptake assay in a competitive inhibition format, as described in PCT Application WO01/20331. Transport-induced currents were also measured in Xenopus oocytes transfected with rat and human PEPT1 and PEPT2.

rPEPT1 [5] = molecular target: T3, rPEPT1; assay: Transport-induced currents in Xenopus oocytes expressing rPEPT1; assay type: cell-based; conditions: relative to Gly-Sar, test compound 1 mM
Experimental: as §3

rPEPT2 [6] = molecular target: T4, rPEPT2 (Rattus norvegicus, UniProt Q63424); assay: Transport-induced currents in Xenopus oocytes expressing rPEPT2; assay type: cell-based; conditions: relative to Gly-Sar, test compound 1 mM
T4 construct: expressed in transfected cells; host or cells: Xenopus oocytes
T4 sequence (Q63424 1-729): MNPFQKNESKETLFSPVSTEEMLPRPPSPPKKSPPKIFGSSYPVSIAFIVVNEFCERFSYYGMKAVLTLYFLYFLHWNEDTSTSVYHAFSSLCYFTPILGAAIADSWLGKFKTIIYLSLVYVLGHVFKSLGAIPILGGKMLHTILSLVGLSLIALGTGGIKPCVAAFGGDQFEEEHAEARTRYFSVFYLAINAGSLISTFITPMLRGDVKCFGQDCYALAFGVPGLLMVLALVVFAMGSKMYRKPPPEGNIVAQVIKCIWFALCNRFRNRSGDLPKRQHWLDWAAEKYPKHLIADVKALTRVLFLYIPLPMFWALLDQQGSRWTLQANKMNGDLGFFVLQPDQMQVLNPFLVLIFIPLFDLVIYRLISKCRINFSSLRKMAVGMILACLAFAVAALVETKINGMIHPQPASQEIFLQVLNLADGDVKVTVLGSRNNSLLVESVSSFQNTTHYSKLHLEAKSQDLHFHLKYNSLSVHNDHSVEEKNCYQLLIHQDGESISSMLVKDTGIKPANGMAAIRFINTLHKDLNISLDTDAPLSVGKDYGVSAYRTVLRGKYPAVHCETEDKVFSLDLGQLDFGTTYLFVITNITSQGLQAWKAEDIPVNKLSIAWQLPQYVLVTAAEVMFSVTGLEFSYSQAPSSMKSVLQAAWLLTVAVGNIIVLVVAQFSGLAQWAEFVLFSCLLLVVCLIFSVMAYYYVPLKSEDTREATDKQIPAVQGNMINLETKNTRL
Experimental: as §3

rPEPT2 [7] = molecular target: T4, rPEPT2; assay: Inhibition of radiolabeled Gly-Sar uptake in rPEPT2-expressing CHO cells; assay type: cell-based
Experimental: as §3

SMILES	IC50 (IBAT transporter [1]) [µM]	EC50 (IBAT transporter [2]) [µM]	IC50 (LBAT transporter) [µM]	% Max. (Gly-Sar) (rPEPT1 [5]) [%]	other results
C[C@H](CCC(=O)NCC(=O)NCC1(CC(=O)O)CCCCC1)[C@H]1CC[C@H]2[C@@H]3[C@H](O)C[C@@H]4C[C@H](O)CC[C@]4(C)[C@H]3C[C@H](O)[C@]12C [Cholyl-Gly-Gabapentin (9a), Cholyl-Gly-Gabapentin]	66	22	64		
CC(CCC(=O)NC(Cc1ccc(O)cc1)C(=O)NCC1(CC(=O)O)CCCCC1)C1CCC2C3C(O)CC4CC(O)CCC4(C)C3CC(O)C12C (centres unmarked) [Cholyl-Tyr-Gabapentin (9h), Cholyl-Tyr-Gabapentin]	52	160	15		% Max. (GDC) (IBAT transporter [2]): 13%
NCC1(CC(=O)O)CCCCC1 [Gabapentin, gabapentin]					bioavailability ([3]; oral): 87 ± 18%; Tmax ([3]; po): 1.3 ± 0.5 h; half-life ([3]; po): 3 ± 1.3 h
NCC(=O)NCC1(CC(=O)O)CCCCC1 [Gly-Gabapentin]				76	IC50 (rPEPT1 [4]; radiolabeled competition assay in rPEPT1-expressing CHO cells, read-out: IC50): 320 µM
NC(Cc1ccccc1)C(=O)NCC1(CC(=O)O)CCCCC1 (centres unmarked) [Phe-Gabapentin]				52	IC50 (rPEPT1 [4]): 56 µM; % Max. (Gly-Sar) (rPEPT2 [6]): 77%
NC(Cc1ccc(O)cc1)C(=O)NCC1(CC(=O)O)CCCCC1 (centres unmarked) [Tyr-Gabapentin]				22	IC50 (rPEPT1 [4]): 130 µM; IC50 (rPEPT2 [7]): 4 µM; % Max. (Gly-Sar) (rPEPT2 [6]): 73%
CC(CCC(=O)NC(Cc1ccccc1)C(=O)NCC1(CC(=O)O)CCCCC1)C1CCC2C3C(O)CC4CC(O)CCC4(C)C3CCC12C (centres unmarked) [UDC-Phe-Gabapentin (9p), Ursodeoxycholyl-Phe-Gabapentin]	27	18	0.7		% Max. (GDC) (IBAT transporter [2]): 27%
